Measurements as given in PubChem BioAssay AID248 (DTP/NCI, 2004).
Where “and” joins values, the source holds several entries; their conditions need not be identical. Identical values can stand only once. Toxic doses and inconclusive results are not listed.

Test system: L1210 leukemia ip in BDF1 mice, survival T/C
Assay: NCI In Vivo Anticancer Drug Screen. Data for tumor model L1210 Leukemia (intraperitoneal) in B6D2F1 (BDF1) mice
Conditions: endpoint: mean survival time, higher = longer survival
Procedure, shortened: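 Each compound was tested against a transplantable tumor grown in mice. The endpoint was survival, with treated animals benchmarked against vehicle controls as a simple ratio.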

[1] = dose: 100.0 mg/kg/injection, schedule: Q04DX003 (ip), vehicle: Klucel (hydroxypropylcellulose) (HPC)
[2] = dose: 200.0 mg/kg/injection, schedule: Q04DX003 (ip), vehicle: Klucel (hydroxypropylcellulose) (HPC)
[3] = dose: 400.0 mg/kg/injection, schedule: Q04DX003 (ip), vehicle: Klucel (hydroxypropylcellulose) (HPC)
[4] = dose: 100.0 mg/kg/injection, schedule: Q01DX009 (ip), vehicle: saline with Tween-80
[5] = dose: 100.0 mg/kg/injection, schedule: Q04DX003 (ip), vehicle: saline with Tween-80
[6] = dose: 200.0 mg/kg/injection, schedule: Q01DX009 (ip), vehicle: saline with Tween-80
[7] = dose: 200.0 mg/kg/injection, schedule: Q04DX003 (ip), vehicle: saline with Tween-80
[8] = dose: 200.0 mg/kg/injection, schedule: Q01DX009 (ip), vehicle: Klucel (hydroxypropylcellulose) (HPC)
[9] = dose: 100.0 mg/kg/injection, schedule: Q01DX009 (ip), vehicle: saline
[10] = dose: 200.0 mg/kg/injection, schedule: Q01DX009 (ip), vehicle: saline
[11] = dose: 400.0 mg/kg/injection, schedule: Q01DX009 (ip), vehicle: saline
[12] = dose: 400.0 mg/kg/injection, schedule: Q01DX009 (ip), vehicle: saline with Tween-80
[13] = dose: 100.0 mg/kg/injection, schedule: Q01DX001 (ip), vehicle: saline
[14] = dose: 200.0 mg/kg/injection, schedule: Q01DX001 (ip), vehicle: saline
[15] = dose: 400.0 mg/kg/injection, schedule: Q01DX001 (ip), vehicle: saline

For `CCCCN(CCCC)CP(=S)(CN(CCCC)CCCC)CN(CCCC)CCCC`, the T/C [1] was 104 % of control, the T/C [2] was 104 % of control and the T/C [3] was 107 % of control.

With `NC(Cc1ccc(OC2CCCC2)c(N(CCCl)CCCl)c1)C(=O)O` (stereo not drawn) the T/C (dose: 0.6 mg/kg/injection, schedule: Q01DX009 (ip), vehicle: carboxymethylcellulose (CMC)) was 122 % of control, the T/C (dose: 3.8 mg/kg/injection, schedule: Q01DX009 (ip), vehicle: saline) was 102 % of control and the T/C (dose: 4.4 mg/kg/injection, schedule: Q01DX001 (ip), vehicle: carboxymethylcellulose (CMC)) was 107 % of control. The T/C (dose: 5.7 mg/kg/injection, schedule: Q01DX009 (ip), vehicle: saline) was 103 % of control, the T/C (dose: 6.6 mg/kg/injection, schedule: Q01DX001 (ip), vehicle: carboxymethylcellulose (CMC)) was 111 % of control and the T/C (dose: 8.5 mg/kg/injection, schedule: Q01DX001 (ip), vehicle: carboxymethylcellulose (CMC)) was 111 % of control. The T/C (dose: 8.5 mg/kg/injection, schedule: Q01DX009 (ip), vehicle: carboxymethylcellulose (CMC)) was 155 % of control, the T/C (dose: 8.5 mg/kg/injection, schedule: Q01DX009 (ip), vehicle: saline) was 110 % of control and the T/C (dose: 8.8 mg/kg/injection, schedule: Q01DX009 (ip), vehicle: carboxymethylcellulose (CMC)) was 115 % of control. The T/C (dose: 10.0 mg/kg/injection, schedule: Q01DX001 (ip), vehicle: carboxymethylcellulose (CMC)) was 120 % of control, the T/C (dose: 13.0 mg/kg/injection, schedule: Q01DX001 (ip), vehicle: carboxymethylcellulose (CMC)) was 114 % of control and the T/C (dose: 13.0 mg/kg/injection, schedule: Q01DX009 (ip), vehicle: carboxymethylcellulose (CMC)) was 152 % of control. For the same molecule, the T/C (dose: 13.3 mg/kg/injection, schedule: Q01DX009 (ip), vehicle: carboxymethylcellulose (CMC)) was 88 % of control, the T/C (dose: 20.0 mg/kg/injection, schedule: Q01DX009 (ip), vehicle: carboxymethylcellulose (CMC)) was 215 % of control and the T/C (dose: 20.0 mg/kg/injection, schedule: Q01DX009 (ip), vehicle: saline) was 119 % of control. The T/C (dose: 30.0 mg/kg/injection, schedule: Q01DX001 (ip), vehicle: carboxymethylcellulose (CMC)) was 202 % of control and the T/C (dose: 30.0 mg/kg/injection, schedule: Q01DX009 (ip), vehicle: saline) was 98 % of control.

For `CC(C)OC(=O)Nc1ccc(Cl)cc1Cl`, the T/C [1] was 97 % of control, the T/C [2] was 108 % of control and the T/C [3] was 108 % of control.

For `O=C(O)c1ccc(Oc2nc3ccccc3s2)cc1`, the T/C [4] was 102 % of control, the T/C [5] was 111 % of control and the T/C [6] was 120 % of control. For the same molecule, the T/C [7] was 97 % of control and the T/C (dose: 400.0 mg/kg/injection, schedule: Q04DX003 (ip), vehicle: saline with Tween-80) was 86 % of control.

With `COc1ccc(NC(=O)Nc2cc(C)ccc2C)cc1` the T/C (dose: 100.0 mg/kg/injection, schedule: Q01DX009 (ip), vehicle: Klucel (hydroxypropylcellulose) (HPC)) was 89 % of control, the T/C [1] was 93 % of control and the T/C [8] was 86 % of control. For the same molecule, the T/C [2] was 93 % of control, the T/C (dose: 400.0 mg/kg/injection, schedule: Q01DX009 (ip), vehicle: Klucel (hydroxypropylcellulose) (HPC)) was 92 % of control and the T/C [3] was 87 % of control.

For `CC(=O)OCC(CO)(CO)CO`, the T/C [9] was 98 % of control, the T/C (dose: 100.0 mg/kg/injection, schedule: Q04DX003 (ip), vehicle: saline) was 97 % of control and the T/C [10] was 106 % of control. For the same molecule, the T/C (dose: 200.0 mg/kg/injection, schedule: Q04DX003 (ip), vehicle: saline) was 105 % of control, the T/C [11] was 101 % of control and the T/C (dose: 400.0 mg/kg/injection, schedule: Q04DX003 (ip), vehicle: saline) was 92 % of control.

With `CCCCN(CCCC)C(=N)c1c(C)cc(C)cc1C` the T/C (dose: 2.5 mg/kg/injection, schedule: Q01DX001 (ip), vehicle: saline) was 101 % of control, the T/C (dose: 5.0 mg/kg/injection, schedule: Q01DX001 (ip), vehicle: saline) was 105 % of control and 106 % of control and 108 % of control and the T/C (dose: 7.0 mg/kg/injection, schedule: Q01DX001 (ip), vehicle: saline) was 94 % of control and 104 % of control. The T/C (dose: 10.0 mg/kg/injection, schedule: Q01DX001 (ip), vehicle: saline) was 98 % of control and 101 % of control and 110 % of control and the T/C (dose: 15.0 mg/kg/injection, schedule: Q01DX001 (ip), vehicle: saline) was 102 % of control and 104 % of control.

In the case of `O=C(NCc1cnccn1)c1ccc(Cl)c(Cl)c1`, the T/C [4] is reported as 98 % of control, the T/C [6] is reported as 98 % of control and the T/C [12] is reported as 106 % of control.

In the case of `CCN(Cc1ccccc1)c1nn[nH]n1`, the T/C [13] is reported as 98 % of control, the T/C [14] is reported as 102 % of control and the T/C [15] is reported as 102 % of control.

`CC(=O)Nc1nc(Cl)c2ncn(C3OC(COC(=O)c4ccccc4)C(OC(=O)c4ccccc4)C3OC(=O)c3ccccc3)c2n1` (stereo not drawn) was tested, and the T/C (dose: 75.0 mg/kg/injection, schedule: Q01DX001 (ip), vehicle: saline) was 95 % of control, the T/C [13] was 103 % of control and the T/C (dose: 150.0 mg/kg/injection, schedule: Q01DX001 (ip), vehicle: saline) was 98 % of control. The T/C [14] was 101 % of control, the T/C (dose: 300.0 mg/kg/injection, schedule: Q01DX001 (ip), vehicle: saline) was 95 % of control and the T/C [15] was 95 % of control.

`O=P(O)(O)OCC1OC(O)(COP(=O)(O)O)C(O)C1O` (stereo not drawn) was tested, and the T/C (dose: 100.0 mg/kg/injection, schedule: Q04DX002 (ip), vehicle: saline) was 100 % of control, the T/C (dose: 200.0 mg/kg/injection, schedule: Q04DX002 (ip), vehicle: saline) was 106 % of control and the T/C (dose: 400.0 mg/kg/injection, schedule: Q04DX002 (ip), vehicle: saline) was 95 % of control.

In the case of `CC(C)C(C#N)(CCCCN1CCCCC1)c1cccc2ccccc12` (stereo not drawn), the T/C [5] is reported as 97 % of control and the T/C [7] is reported as 93 % of control.

`CSc1ncnc2c1ncn2C1CCCC1` was tested, and the T/C (dose: 50.0 mg/kg/injection, schedule: Q01DX001 (ip), vehicle: carboxymethylcellulose (CMC)) was 116 % of control, the T/C (dose: 100.0 mg/kg/injection, schedule: Q01DX001 (ip), vehicle: carboxymethylcellulose (CMC)) was 104 % of control and the T/C (dose: 200.0 mg/kg/injection, schedule: Q01DX001 (ip), vehicle: carboxymethylcellulose (CMC)) was 107 % of control.

With `CN(Cc1cnc2nc(N)nc(N)c2n1)c1cc(Cl)c(C(=O)NC(CCC(=O)O)C(=O)O)cc1Cl` (stereo not drawn) the T/C (dose: 6.25 mg/kg/injection, schedule: Q01DX009 (ip), vehicle: sodium bicarbonate) was 106 % of control and the T/C (dose: 12.5 mg/kg/injection, schedule: Q01DX009 (ip), vehicle: sodium bicarbonate) was 115 % of control.

With `CCOc1ccc(NC(=O)Nc2cccc(F)c2)cc1` the T/C (dose: 12.5 mg/kg/injection, schedule: Q01DX009 (ip), vehicle: Klucel (hydroxypropylcellulose) (HPC)) was 88 % of control, the T/C (dose: 25.0 mg/kg/injection, schedule: Q01DX009 (ip), vehicle: Klucel (hydroxypropylcellulose) (HPC)) was 90 % of control and the T/C (dose: 50.0 mg/kg/injection, schedule: Q01DX009 (ip), vehicle: Klucel (hydroxypropylcellulose) (HPC)) was 88 % of control. For the same molecule, the T/C [8] was 90 % of control.

In the case of `O=C1CCCCCCCCC1O` (stereo not drawn), the T/C [4] is reported as 120 % of control, the T/C [9] is reported as 333 % of control and the T/C [1] is reported as 103 % of control. For the same molecule, the T/C [6] was 101 % of control, the T/C [10] was 114 % of control and the T/C [2] was 115 % of control. For the same molecule, the T/C [12] was 97 % of control, the T/C [11] was 105 % of control and the T/C [3] was 108 % of control.

`CNC(=O)N(C)c1cc(N(C)C)nc(OC)n1` was tested, and the T/C (dose: 5.0 mg/kg/injection, schedule: Q01DX009 (ip), vehicle: Klucel (hydroxypropylcellulose) (HPC)) was 98 % of control, the T/C (dose: 10.0 mg/kg/injection, schedule: Q01DX009 (ip), vehicle: Klucel (hydroxypropylcellulose) (HPC)) was 94 % of control and the T/C (dose: 20.0 mg/kg/injection, schedule: Q01DX009 (ip), vehicle: Klucel (hydroxypropylcellulose) (HPC)) was 94 % of control.
